According to ChEMBL document CHEMBL3046129, “Synthesis and pharmacological evaluation of N-(6-chlorobenzo[d]thiazol-2-yl)hydrazine carboxamide derivatives of benzothiazole” (Med Chem Res, 2013):

Assays:
Rattus norvegicus [1] = experiment: Anti-inflammatory activity in Wistar Rattus norvegicus (rat) assessed as inhibition of carrageenan-induced paw edema at 70 mg/kg, po administered 1 hr prior to carrageenan-challenge measured after 4 hr by plethysmometer analysis; assay type: functional
Rattus norvegicus [2] = experiment: Anti-inflammatory activity in Wistar Rattus norvegicus (rat) assessed as inhibition of carrageenan-induced paw edema at 70 mg/kg, po administered 1 hr prior to carrageenan-challenge measured after 3 hr by plethysmometer analysis; assay type: functional
Rattus norvegicus [3] = experiment: Potency index, Rattus norvegicus (rat)io of ibuprofen anti-inflammatory activity to compound anti-inflammatory activity in Wistar Rattus norvegicus (rat) at 70 mg/kg, po administered 1 hr prior to carrageenan-challenge measured after 4 hr by plethysmometer analysis; assay type: functional
Rattus norvegicus [4] = experiment: Gastrointestinal toxicity in Wistar Rattus norvegicus (rat) assessed as ulcerogenicity index at 210 mg/kg, po (reference value: 0 No unit); assay type: organism-based; design: dose 210 mg/kg, route oral; details: in vivo
Mus musculus [5] = experiment: Potency index, ratio of ibuprofen analgesic activity to compound analgesic in Swiss albino Mus musculus (mouse) at 70 mg/kg, po measured after 4 hr by tail immersion method; assay type: functional
Mus musculus [6] = experiment: Analgesic activity in Swiss albino Mus musculus (mouse) assessed as inhibition of pain at 70 mg/kg, po measured after 4 hr by tail immersion method; assay type: functional
Rattus norvegicus [7] = experiment: Effect on lipid peroxidation in Wistar Rattus norvegicus (rat) gastric mucosa assessed as malondialdehyde content at 210 mg/kg, po measured per 100 mg of tissue by UV spectrophotometric analysis (reference value: 3.26 +/-0.01 nmol); assay type: ADME, organism-based; design: dose 210 mg/kg, route oral; details: in vivo
Mus musculus [8] = experiment: Analgesic activity in Swiss albino Mus musculus (mouse) assessed as time required for tail withdrawal at 70 mg/kg, po measured after 4 hr by tail immersion method; assay type: functional
Rattus norvegicus [9] = experiment: Hepatotoxicity in Wistar albino Rattus norvegicus (rat) assessed as hepatocyte necrosis and degeneRattus norvegicus (rat)ion at 210 mg/kg, po qd for 15 days measured after 24 hr of last dosage of drug by hematoxylin-eosin staining based light microscopy; assay type: toxicity, organism-based; design: dose 210 mg/kg, route oral; details: hepatocytes
Rattus norvegicus [10] = experiment: Hepatotoxicity in Wistar albino Rattus norvegicus (rat) assessed as serum glutamate oxaloacetate transaminase activity at 210 mg/kg, po qd for 15 days (reference value: 143.71 +/-1.10 units/ml); assay type: toxicity, organism-based; design: dose 210 mg/kg, route oral; details: in vivo, 360 h
Rattus norvegicus [11] = experiment: Hepatotoxicity in Wistar albino Rattus norvegicus (rat) assessed as serum glutamate pyruvate transaminase activity at 210 mg/kg, po qd for 15 days (reference value: 32.46 +/-0.76 units/ml); assay type: toxicity, organism-based; design: dose 210 mg/kg, route oral; details: in vivo, 360 h
Rattus norvegicus [12] = experiment: Hepatotoxicity in Wistar albino Rattus norvegicus (rat) assessed as hepatocyte with clearing of cytoplasm and compression of sinusoidal spaces at 210 mg/kg, po qd for 15 days measured after 24 hr of last dosage of drug by hematoxylin-eosin staining based light microscopy; assay type: toxicity, organism-based, Sinusoidal space; design: dose 210 mg/kg, route oral; details: hepatocytes
Rattus norvegicus [13] = experiment: Hepatotoxicity in Wistar albino Rattus norvegicus (rat) assessed as serum total protein level at 210 mg/kg, po qd for 15 days (reference value: 1.72 +/-0.02 g/dl); assay type: toxicity, organism-based; design: dose 210 mg/kg, route oral; details: in vivo, 360 h
Rattus norvegicus [14] = experiment: Hepatotoxicity in Wistar albino Rattus norvegicus (rat) assessed as serum alkaline phosphatase activity at 210 mg/kg, po qd for 15 days; assay type: toxicity, organism-based; design: dose 210 mg/kg, route oral; details: in vivo, 360 h
Rattus norvegicus [15] = experiment: Hepatotoxicity in Wistar albino Rattus norvegicus (rat) assessed as serum total albumin level at 210 mg/kg, po qd for 15 days (reference value: 1.63 +/-0.02 g/dl); assay type: toxicity, organism-based; design: dose 210 mg/kg, route oral; details: in vivo, 360 h

| SMILES | inhibition in vivo at 70 mg/kg (Rattus norvegicus [1]) | inhibition in vivo at 70 mg/kg (Rattus norvegicus [2]) | Ratio (Rattus norvegicus [3]) | UI (Rattus norvegicus [4]) | Ratio (Mus musculus [5]) | inhibition in vivo at 70 mg/kg (Mus musculus [6]) | Activity (Rattus norvegicus [7]) | Time (Mus musculus [8]) | Activity (Rattus norvegicus [9]) | Activity (Rattus norvegicus [10]) | Activity (Rattus norvegicus [11]) | Activity (Rattus norvegicus [12]) | Activity (Rattus norvegicus [13]) | Activity (Rattus norvegicus [14]) | Activity (Rattus norvegicus [15]) |
| --- | --- | --- | --- | --- | --- | --- | --- | --- | --- | --- | --- | --- | --- | --- | --- |
| O=[N+]([O-])c1ccc(-c2nn3c(Nc4nc5ccc(Cl)cc5s4)nnc3s2)cc1 | 66.7% | 53.3% | 0.8 | – | – | – | – | – | – | – | – | – | – | – | – |
| Clc1ccc2nc(Nc3nnc(-c4ccccc4)o3)sc2c1 | 88.3% | 78.8% | 1.06 | 1.667 | 0.74 | 61.1% | 4.47 nmol | 1.45 s | – | – | – | – | – | – | – |
| Clc1ccc2nc(Nc3nnc(-c4ccccc4Cl)o3)sc2c1 | 53.2% | 53% | 0.64 | – | – | – | – | – | – | – | – | – | – | – | – |
| Clc1ccc(-c2nnc(Nc3nc4ccc(Cl)cc4s3)o2)c(Cl)c1 | 87.1% | 80% | 1.05 | 0.917 | 0.96 | 79% | 3.29 nmol | 2.22 s | Non-toxic | 138.42 U/ml | 30.74 U/ml | Toxic | 1.75 g/dL | Non-toxic | 1.7 g/dL |
| Cc1ccccc1-c1nnc(Nc2nc3ccc(Cl)cc3s2)o1 | 37.7% | 23.9% | 0.45 | – | – | – | – | – | – | – | – | – | – | – | – |
| CC(=O)Oc1ccccc1-c1nnc(Nc2nc3ccc(Cl)cc3s2)o1 | 50.8% | 31% | 0.61 | – | – | – | – | – | – | – | – | – | – | – | – |
| Clc1ccc2nc(Nc3nnc(Oc4ccccc4)o3)sc2c1 | 88.8% | 74.2% | 1.07 | 1.083 | 0.63 | 52% | 9.1 nmol | 1.9 s | – | – | – | – | – | – | – |
| CC.O=[N+]([O-])c1ccc(-c2nnc(Nc3nc4ccc(Cl)cc4s3)o2)cc1 | 32.5% | 19.2% | 0.39 | – | – | – | – | – | – | – | – | – | – | – | – |
| Sc1nnc(Nc2nc3ccc(Cl)cc3s2)o1 | 69.8% | 61.7% | 0.84 | 2.166 | 0.88 | 72.3% | 9.04 nmol | 2.24 s | – | – | – | – | – | – | – |
| Clc1ccc2nc(Nc3nnc4sc(-c5ccccc5Cl)nn34)sc2c1 | 50.8% | 41.7% | 0.61 | – | – | – | – | – | – | – | – | – | – | – | – |
| Clc1ccc(-c2nn3c(Nc4nc5ccc(Cl)cc5s4)nnc3s2)c(Cl)c1 | 89.6% | 80% | 1.08 | 0.925 | 0.92 | 75.4% | 5.74 nmol | 2.21 s | – | – | – | – | – | – | – |
| Cc1ccccc1-c1nn2c(Nc3nc4ccc(Cl)cc4s3)nnc2s1 | 88.8% | 77.5% | 1.07 | 1.583 | 0.93 | 76.9% | 7.44 nmol | 2.83 s | – | – | – | – | – | – | – |
| CC(=O)Oc1ccccc1-c1nn2c(Nc3nc4ccc(Cl)cc4s3)nnc2s1 | 20.6% | 10% | 0.24 | – | – | – | – | – | – | – | – | – | – | – | – |
| Clc1ccc2nc(Nc3nnc4sc(Oc5ccccc5)nn34)sc2c1 | 89.7% | 78.3% | 1.08 | 0.666 | 0.91 | 75% | 3.04 nmol | 2.17 s | Non-toxic | 131.18 U/ml | 28.33 U/ml | Toxic | 1.79 g/dL | Non-toxic | 1.74 g/dL |
| Clc1ccc2nc(Nc3nnc4sc(-c5ccccc5)nn34)sc2c1 | 57.9% | 48.3% | 0.7 | – | – | – | – | – | – | – | – | – | – | – | – |
| CC(C)Cc1ccc(C(C)C(=O)O)cc1 (stereo not given) [IBUPROFEN] | 82.7% | 78.2% | – | 2.315 | – | 73.5% | 7.51 nmol | 2.6 s | – | 140.14 U/ml | 34.26 U/ml | – | 1.74 g/dL | Toxic | 1.71 g/dL |
